According to US20260242351A1, “LZK INHIBITORS” (Uereka Biosciences, Inc., priority 2023, published 2026):
Where a name gives a salt, the structure may show the parent alone.

Legend:
[1] = target: T1, DLK (Homo sapiens, UniProt Q12852); test: LZK and DLK Inhibition Assay (competition binding to liganded affinity beads, qPCR readout): DLK; conditions: kinase produced in HEK-293 cells, 11-point 3-fold dilution series
T1 construct: made in house; host or cells: HEK-293 cells
T1 sequence (Q12852 1-859): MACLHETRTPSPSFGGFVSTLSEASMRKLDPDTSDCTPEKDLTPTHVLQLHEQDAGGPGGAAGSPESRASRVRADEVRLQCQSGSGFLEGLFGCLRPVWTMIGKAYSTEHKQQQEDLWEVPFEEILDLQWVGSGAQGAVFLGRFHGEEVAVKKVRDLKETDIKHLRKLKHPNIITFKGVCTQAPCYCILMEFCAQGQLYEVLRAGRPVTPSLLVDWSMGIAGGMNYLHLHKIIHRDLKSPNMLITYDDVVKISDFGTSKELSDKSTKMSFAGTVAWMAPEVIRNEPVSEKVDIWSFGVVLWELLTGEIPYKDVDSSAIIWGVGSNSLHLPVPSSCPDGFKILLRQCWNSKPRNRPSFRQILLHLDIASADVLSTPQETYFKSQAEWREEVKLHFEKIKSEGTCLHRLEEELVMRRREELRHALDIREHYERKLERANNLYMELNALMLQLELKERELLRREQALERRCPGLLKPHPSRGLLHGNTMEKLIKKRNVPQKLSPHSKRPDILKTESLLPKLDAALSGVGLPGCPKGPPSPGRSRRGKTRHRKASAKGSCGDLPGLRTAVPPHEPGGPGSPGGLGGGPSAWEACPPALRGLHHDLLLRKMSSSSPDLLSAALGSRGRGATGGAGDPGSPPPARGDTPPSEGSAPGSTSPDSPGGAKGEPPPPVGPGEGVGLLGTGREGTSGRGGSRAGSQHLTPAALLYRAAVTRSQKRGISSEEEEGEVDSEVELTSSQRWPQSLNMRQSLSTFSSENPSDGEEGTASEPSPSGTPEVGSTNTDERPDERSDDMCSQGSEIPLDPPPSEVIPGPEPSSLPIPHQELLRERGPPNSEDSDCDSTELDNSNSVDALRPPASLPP
Procedure: (§1) The kinases were produced in HEK-293 cells and subsequently tagged with DNA for qPCR detection. Streptavidin-coated magnetic beads were treated with biotinylated small molecule ligands for 30 minutes at room temperature to generate affinity resins for the kinase assays. The liganded beads were blocked with excess biotin and washed with blocking buffer (SeaBlock (Pierce), 1% BSA, 0.05% Tween 20, 1 mM DTT) to remove unbound ligand and to reduce non-specific binding. Binding reactions were assembled by combining LZK and DLK kinases, liganded affinity beads, and test compounds in 1× binding buffer (20% SeaBlock, 0.17×PBS, 0.05% Tween 20, 6 mM DTT). Test compounds were prepared as 111× stocks in 100% DMSO. Kds were determined using an 11-point 3-fold compound dilution series with three DMSO control points. All compounds for Kd measurements are distributed by acoustic transfer (non-contact dispensing) in 100% DMSO. The compounds were then diluted directly into the assays such that the final concentration of DMSO was 0.9%. All reactions performed in polypropylene 384-well plate. Each was a final volume of 0.02 mL. The assay plates were incubated at room temperature with shaking for 1 hour and the affinity beads were washed with wash buffer (lx PBS, 0.05% Tween 20). The beads were then re-suspended in elution buffer (1×PBS, 0.05% Tween 20, 0.5 μM nonbiotinylated affinity ligand) and incubated at room temperature with shaking for 30 minutes. The kinase concentration in the eluates was measured by qPCR.

[2] = target: T2, LZK (Homo sapiens, UniProt O43283); test: LZK and DLK Inhibition Assay (competition binding to liganded affinity beads, qPCR readout): LZK; conditions: kinase produced in HEK-293 cells, 11-point 3-fold dilution series
T2 construct: made in house; host or cells: HEK-293 cells
T2 sequence (O43283 1-966): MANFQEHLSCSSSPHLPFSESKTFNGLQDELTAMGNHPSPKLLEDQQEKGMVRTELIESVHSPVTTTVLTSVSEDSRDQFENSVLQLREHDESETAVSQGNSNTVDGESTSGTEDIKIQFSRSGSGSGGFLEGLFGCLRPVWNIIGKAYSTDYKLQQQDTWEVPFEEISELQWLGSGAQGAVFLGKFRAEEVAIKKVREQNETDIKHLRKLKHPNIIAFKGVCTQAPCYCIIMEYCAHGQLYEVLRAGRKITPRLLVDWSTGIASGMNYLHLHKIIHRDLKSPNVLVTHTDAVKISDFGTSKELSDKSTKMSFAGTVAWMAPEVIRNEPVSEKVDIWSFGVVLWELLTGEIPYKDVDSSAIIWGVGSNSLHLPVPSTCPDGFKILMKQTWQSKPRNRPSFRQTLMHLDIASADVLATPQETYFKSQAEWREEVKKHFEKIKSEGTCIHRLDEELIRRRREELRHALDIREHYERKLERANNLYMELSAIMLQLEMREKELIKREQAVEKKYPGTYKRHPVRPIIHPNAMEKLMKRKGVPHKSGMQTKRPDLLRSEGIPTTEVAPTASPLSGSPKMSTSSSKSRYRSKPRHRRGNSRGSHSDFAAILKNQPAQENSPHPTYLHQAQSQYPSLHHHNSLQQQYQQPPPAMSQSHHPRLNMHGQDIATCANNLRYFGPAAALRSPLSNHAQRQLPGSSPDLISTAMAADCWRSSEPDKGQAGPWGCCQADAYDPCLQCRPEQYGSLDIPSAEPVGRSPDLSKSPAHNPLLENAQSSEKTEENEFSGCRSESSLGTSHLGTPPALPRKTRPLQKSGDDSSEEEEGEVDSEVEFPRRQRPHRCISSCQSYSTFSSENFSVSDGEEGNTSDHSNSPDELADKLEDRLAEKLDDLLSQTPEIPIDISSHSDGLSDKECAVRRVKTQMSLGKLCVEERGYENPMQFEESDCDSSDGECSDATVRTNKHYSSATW
Procedure: as §1

Structure (SMILES)	IC50 [1] [µM]	IC50 [2] [µM]
Fc1c(C2CCN(CC3CC3)CC2)cc(Nc2cnc(C3CC3)cn2)nc1N1CC2CC2C1 (stereo not shown) [Compound 1, N-(6-(3-Azabicyclo[3.1.0]hexan-3-yl)-4-(1-(cyclopropylmethyl)piperidin-4-yl)-5-fluoropyridin-2-yl)-5-cyclopropylpyrazin-2-amine]	≤ 0.1	≤ 0.1
Fc1c(C2CCN(CC3CC3)CC2)cc(N2CC3CC3C2)nc1Nc1cnc(C2CC2)cn1 (stereo not shown) [Compound 2, N-(6-(3-Azabicyclo[3.1.0]hexan-3-yl)-4-(1-(cyclopropylmethyl)piperidin-4-yl)-3-fluoropyridin-2-yl)-5-cyclopropylpyrazin-2-amine]	≤ 0.1	0.1 to 1
Fc1c(N2CCNCC2)cc(Nc2ccc(C(F)F)cn2)nc1N1CCOCC1 [Compound 3, N-(5-(Difluoromethyl)pyridin-2-yl)-5-fluoro-6-morpholino-4-(piperazin-1-yl)pyridin-2-amine di-TFA salt]	0.1 to 1	0.1 to 1
Fc1c(N2CC3CC2CN3)cc(Nc2ccc(C(F)F)cn2)nc1N1CCOCC1 (stereo not shown) [Compound 4, 4-(2,5-Diazabicyclo[2.2.1]heptan-2-yl)-N-(5-(difluoromethyl)pyridin-2-yl)-5-fluoro-6-morpholinopyridin-2-amine di-TFA salt]	1 to 10	1 to 10
Fc1c(N2CCNCC2)cc(Nc2ccc(C(F)(F)F)cn2)nc1N1CCOCC1 [Compound 5, 5-Fluoro-6-morpholino-4-(piperazin-1-yl)-N-(5-(trifluoromethyl)pyridin-2-yl)pyridin-2-amine]	1 to 10	0.1 to 1
Fc1c(N2CC3CC2CN3)cc(Nc2ccc(C(F)(F)F)cn2)nc1N1CCOCC1 (stereo not shown) [Compound 6, 4-(2,5-Diazabicyclo[2.2.1]heptan-2-yl)-5-fluoro-6-morpholino-N-(5-(trifluoromethyl)pyridin-2-yl)pyridin-2-amine]	1 to 10	1 to 10
Clc1c(C2CCN(CC3CC3)CC2)cc(Nc2cnc(C3CC3)cn2)nc1N1CC2CC2C1 (stereo not shown) [Compound 7, N-(6-(3-Azabicyclo[3.1.0]hexan-3-yl)-5-chloro-4-(1-(cyclopropylmethyl)piperidin-4-yl)pyridin-2-yl)-5-cyclopropylpyrazin-2-amine TFA salt]	1 to 10	1 to 10
N#Cc1c(C2CCN(CC3CC3)CC2)cc(Nc2cnc(C3CC3)cn2)nc1N1CC2CC2C1 (stereo not shown) [Compound 8, 2-(3-Azabicyclo[3.1.0]hexan-3-yl)-4-(1-(cyclopropylmethyl)piperidin-4-yl)-6-((5-cyclopropylpyrazin-2-yl)amino)nicotinonitrile formic acid salt]	≤ 0.1	≤ 0.1
Nc1c(C2CCN(CC3CC3)CC2)cc(Nc2cnc(C3CC3)cn2)nc1N1CC2CC2C1 (stereo not shown) [Compound 9, 6-(3-azabicyclo[3.1.0]hexan-3-yl)-4-(1-(cyclopropylmethyl)piperidin-4-yl)-N2-(5-cyclopropylpyrazin-2-yl)pyridine-2,5-diamine 2,2,2-trifluoroacetate]	≤ 0.1	≤ 0.1
Fc1c(N2CCNCC2)cc(Nc2cnc(C3CC3)cn2)nc1N1CCOCC1 [Compound 10, 5-Cyclopropyl-N-(5-fluoro-6-morpholino-4-(piperazin-1-yl)pyridin-2-yl)pyrazin-2-amine]		≤ 0.1
